In the NIST ThermoML archive (doi:10.1021/acs.jced.5b00201):
± gives the expanded uncertainty stated by the source.

Experiment: xn = mol fraction of the nth substance listed
Settings: 298.2 K, 100 kPa, Liquid, Pycnometric method

SMILES: Cc1ccc(-c2ncc(Cl)cc2-c2ccc(S(C)(=O)=O)cc2)cn1 [etoricoxib] + CC(=O)N(C)C
- mass density (x1 = 0.08112): 942.7 ± 0.8 kg/m3

SMILES: Cc1ccc(-c2ncc(Cl)cc2-c2ccc(S(C)(=O)=O)cc2)cn1 [etoricoxib] + C1COCCO1
- mass density (x1 = 0.07301): 1026.8 ± 0.9 kg/m3

SMILES: Cc1ccc(-c2ncc(Cl)cc2-c2ccc(S(C)(=O)=O)cc2)cn1 [etoricoxib] + CCO
- mass density (x1 = 0.05374): 819.9 ± 0.7 kg/m3

SMILES: Cc1ccc(-c2ncc(Cl)cc2-c2ccc(S(C)(=O)=O)cc2)cn1 [etoricoxib] + CN(C)C=O
- mass density (x1 = 0.06899): 952.7 ± 0.8 kg/m3

SMILES: Cc1ccc(-c2ncc(Cl)cc2-c2ccc(S(C)(=O)=O)cc2)cn1 [etoricoxib] + C[S+](C)[O-]
- mass density (x1 = 0.06044): 1105.6 ± 1 kg/m3

SMILES: Cc1ccc(-c2ncc(Cl)cc2-c2ccc(S(C)(=O)=O)cc2)cn1 [etoricoxib] + OCCCCO
- mass density (x1 = 0.07226): 1039.8 ± 0.9 kg/m3

SMILES: Cc1ccc(-c2ncc(Cl)cc2-c2ccc(S(C)(=O)=O)cc2)cn1 [etoricoxib] + O
- mass density (x1 = 1.56e-05): 994.8 ± 0.8 kg/m3
